Test results as given in patent publication US6224850A, “Antiwrinkle cosmetic/pharmaceutical compositions comprising iridaceae extracts” (Societe L'Oreal S.A., priority 1996, dated 2001).
pIC50: −log10 of the molar value.

Legend:
Glycine receptor = Glycine receptor (Rattus norvegicus, UniProt P07727); experiment: biochemical; type: binding
[1] = test system: convulsions induced by strychnine in mice; details: mouse, in vivo
GABA-A receptor = type: binding, rat; details: dose displacing 50% of tritiated muscimol; nonlabelled muscimol

Chain of Glycine receptor (P07727 29-457): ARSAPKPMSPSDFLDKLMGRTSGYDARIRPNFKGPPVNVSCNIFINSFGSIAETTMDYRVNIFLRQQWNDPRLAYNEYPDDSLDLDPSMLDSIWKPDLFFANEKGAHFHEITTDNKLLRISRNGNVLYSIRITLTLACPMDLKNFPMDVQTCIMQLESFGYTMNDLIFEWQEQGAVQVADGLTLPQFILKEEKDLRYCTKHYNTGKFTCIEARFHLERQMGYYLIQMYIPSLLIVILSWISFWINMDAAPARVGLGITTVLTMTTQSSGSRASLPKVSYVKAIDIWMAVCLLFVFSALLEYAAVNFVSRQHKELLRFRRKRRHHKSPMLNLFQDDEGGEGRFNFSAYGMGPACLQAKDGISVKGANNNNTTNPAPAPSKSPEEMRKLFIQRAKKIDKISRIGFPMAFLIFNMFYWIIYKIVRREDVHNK
Chain of Glycine receptor (P20781 23-496, further chain): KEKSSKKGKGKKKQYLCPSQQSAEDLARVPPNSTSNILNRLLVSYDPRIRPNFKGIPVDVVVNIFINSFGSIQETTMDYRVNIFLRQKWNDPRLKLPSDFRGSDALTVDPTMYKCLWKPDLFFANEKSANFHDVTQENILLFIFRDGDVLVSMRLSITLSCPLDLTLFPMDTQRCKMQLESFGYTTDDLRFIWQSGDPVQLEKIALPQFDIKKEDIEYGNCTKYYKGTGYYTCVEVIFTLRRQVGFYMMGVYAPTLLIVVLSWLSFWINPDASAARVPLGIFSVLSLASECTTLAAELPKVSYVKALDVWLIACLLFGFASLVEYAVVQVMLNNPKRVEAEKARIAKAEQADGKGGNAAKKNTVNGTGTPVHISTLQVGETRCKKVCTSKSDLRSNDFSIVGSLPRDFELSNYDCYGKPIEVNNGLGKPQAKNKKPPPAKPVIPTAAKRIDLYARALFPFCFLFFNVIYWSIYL

## O=C1C[C@@H]2OCC=C3CN4CC[C@]56c7ccccc7N1[C@H]5[C@H]2[C@H]3C[C@H]46 [strychnine]
Glycine receptor
  pIC50: 7.57

## CN1C(=O)CN=C(c2ccccc2)c2cc(Cl)ccc21 [Diazepam]
[1]
  Delay in the appearance of the convulsions: 3431
  Variation (%) of delay: +1190

## NCc1cc(=O)[nH]o1 [muscimol]
GABA-A receptor
  pIC50: 8.09
